According to patent US20070244449A1, “System and method for the prevention of bacterial and fungal infections including Urinary Tract Infections (UTI) using N-halogenated amino acids” (Novacal Pharmaceuticals, Inc., priority 2005, published 2007):

Assays:
[1] = tested on: Escherichia coli ATCC 25922; test: Destruction of 48 h biofilm on 1-cm Foley catheter pieces, plate count; assay type: cell-based; settings: 33 mM, 0.9% saline, pH 3.5
Protocol: (§1) We have devised a dynamic in vitro model using traditional microbiological methods to assess the antimicrobial efficacy of 33 mM N, N-dichloro 2,2-dimethly taurine in 0.9% saline at pH 3.5, as compared to physiological saline in disinfecting intra-luminal and extra-luminal indwelling Foley catheter.
(§2) Foley Catheter, manufactured by BARD • N,N-dichloro 2,2-dimethyl taurine (33 mM) in 0.9% saline pH 3.5 • Escherichia coli ATCC 25922 • Proteus mirabilis ATCC 29245
(§3) Neutralizer Broth containing: A broth containing dextrose, lecithin, sodium thiosulfate, pancreatic digest of casein, Tween® 80, yeast extract, sodium bisulfate, sodium thioglycollate, monopotassium phosphate, and bromcresol purple.
(§4) The ability of N,N-dichloro 2,2-dimethyl taurine to destroy biofilm formation was evaluated as follows. First, biofilm was established on 1-cm-long pieces of catheter for 48 hours in nutrient broth in the presence of either Proteus mirabilis or Escherichia coli. Subsequently, the biofilm-bearing pieces of catheter were exposed to 33 mM N,N-dichloro 2,2-dimethyl taurine in 0.9% saline at pH 3.5 over various periods of time. After the exposure, the pieces of catheter were transferred into 1 mL of neutralizer broth to stop the reaction. 0.1 mL (10%) of the neutralizer broth was then plated out onto nutrient agar and the number of colonies was counted. The CFU (Colony Forming Unit) values obtained were multiplied by 10 to obtain the actual CFU/mL values per treated sample.

[2] = tested on: Proteus mirabilis ATCC 29245; test: as above; assay type: cell-based; settings: 33 mM, 0.9% saline, pH 3.5
Protocol: as §1, §2, §3, §4

[3] = tested on: E. coli and Pr. mirabilis; test: Treated biofilm-bearing catheter pieces: re-culture (OD600) and visual examination; assay type: cell-based, Escherichia coli; Proteus mirabilis
Protocol: In order to measure the amount of live bacteria left on the pieces of catheter following treatment, the biofilm-bearing pieces of catheter were transferred into tubes containing fresh growth medium. After allowing growth in a shaker at 37° C. for 4 hours, Optical Density (OD) was read at 600 nm.
This was also shown by very low optical denisty readings (average of 0.057 OD600 units, individual data not listed) following the attempt to re-culture the bacteria from treated catheters.

[4] = tested on: urease positive Escherichia coli ATCC 25922; test: Biofilm eradication in model urinary catheter flow system; assay type: cell-based; settings: for Average Log CFU/cm^2 on catheter section after treatment, average 3 pieces / Average Log CFU/cm^2 on catheter section after treatment, end / Average Log CFU/cm^2 on catheter section after treatment, front / Average Log CFU/cm^2 on catheter section after treatment, middle / Log reduction: pH 4, 0.9% NaCl; for Average Log CFU/cm^2 on catheter section after treatment, average 3 pieces / Average Log CFU/cm^2 on catheter section after treatment, end / Average Log CFU/cm^2 on catheter section after treatment, front / Average Log CFU/cm^2 on catheter section after treatment, middle: 3-day biofilm, 10 min flow + 30 min stationary; for Log reduction: versus PBS or saline
Protocol: A test system was established which utilized size 14 Foley catheters (supplied by NovaCal), which were cut and installed into a pre-sterilized flow system (FIG. 4) using aseptic techniques. The system consists of five parallel channels, one channel per catheter. Sterile medium was supplied to the system via a flow-break, to prevent back-growth into the medium reservoir. The entire system was placed in a 37° C. incubator. After conditioning the system with artificial urine medium for 30 minutes, 2.0 ml inoculum from an overnight culture of urease positive Escherichia coli ATCC 25922 grown in artificial urine medium at 37° C. was introduced into the system via the valve closest to the flow break (bladder side of catheter). Each inoculum was tested to confirm urease production. After inoculation, the system remained under static conditions (no flow) for two hours, to allow for bacterial attachment to the catheters. Flow of artificial urine medium was then initiated and maintained at a rate of 0.75 ml/min for 3 days.
Test Articles Used Were: • Sterile saline • N,N-dichloro 2,2-dimethyl taurine, 4 mM, pH 4, 0.9% by weight NaCl • N,N-dichloro 2,2-dimethyl taurine, 40 mM, pH 4, 0.9% by weight NaCl
20 ml of each treatment solution N,N-dichloro 2,2-dimethyl taurine and sterile control solution were loaded into 30 ml syringes and connected to a syringe pump. Sterile sections of tubing were attached from the syringe to the valve furthest from the flow break (bag end of the catheter). This end is designated as FRONT for sampling purposes. The pump was turned on and the treatments were introduced at 2.0 ml/min for 10 minutes through the catheters. Excess medium and treatment solution was captured in a waste container. After 10 minutes, the syringe pump was turned off and the solutions were left stationary in the catheters for 30 minutes. The solutions were then withdrawn back through the catheter into the syringe, medium flow was resumed for a 30 minute rinse time and the catheters were then sampled.
Each catheter was divided into 3 segments (front, middle, end) and each segment was subsampled. One subsample was used to determine bacterial populations by plate count, another subsample was analyzed by staining with the LIVE/DEAD® Baclight™ bacterial viability kit (L7012, Molecular Probes, Oregon, USA) using confocal laser microscopy (CSLM), the third sample was imaged using scanning electron microscopy (SEM).
(§5) For viable cell counts, a 3.0 centimeter section of tubing was removed and scraped with a sterile stainless steel rod (using aseptic technique) into a tube containing 10.0 ml of sterile phosphate-buffered saline (PBS). The tubes were then sonicated for two minutes and the suspension was vortexed for one minute. The number of viable (culturable) bacteria was enumerated by serial dilution in PBS and plate counts using the spread-plate technique. Results were expressed as CFU/cm^2 and are calculated as follows: [formula]
The surface area of the internal lumen of the catheter section scraped was determined to be 2.826 cm^2.
Three treatment runs were performed on 3 catheters each: One treated with PBS or sterile 0.9% saline as control, one treated with 4 mM and one treated with 40 mM N,N-dichloro 2,2-dimethyl taurine. The Log (CFU/cm^2) was calculated from the average of 9 treatments, consisting of 3 treatments of 3 catheter pieces for each Test Article.

[5] = tested on: urease positive Escherichia coli ATCC 25922; test: Biofilm prevention in model urinary catheter flow system; assay type: cell-based
Protocol: Test Articles Used Were: • Sterile saline • White vinegar at 1:3 dilution with distilled water (filter sterilized). • Neomycin Prescription: 1 ml into 1000 ml of sterile saline • N,N-dichloro 2,2-dimethyl taurine, 40 mM, pH 4, 0.9% by weight NaCl
Day 0: The test system, as described in detail above, utilized size 14 Foley catheters, cut and installed into a pre-sterilized flow system using aseptic techniques. Sterile medium was supplied to the system via a flow-break, to prevent back-growth into the medium reservoir. The entire system was placed into a 37° C. incubator. After conditioning the system with artificial urine medium for 30 minutes, each catheter was treated with a disinfectant. 20.0 ml of each treatment solution was loaded into 30 ml syringes and connected to a syringe pump. Sterile sections of tubing were attached from the syringe to the valve furthest from the flow break (bag end of the catheter). This end is designated as FRONT for sampling purposes. The pump was turned on and the treatments were introduced at 2.0 ml/min for 10 minutes through the catheters. Excess medium and treatment solution was captured in a waste container. After 10 minutes, the syringe pump was turned off and the solutions were left stationary in the catheters for 30 minutes. The solutions were then withdrawn back through the catheter into the syringe. The catheters were then rinsed with sterile medium for 30 minutes.
On Day 0 only: An inoculum from an overnight culture of urease positive Escherichia coli ATCC 25922 grown in artificial urine medium at 37° C. was introduced into the system via the valve closest to the flow break (bladder side of catheter). Each inoculum was tested for confirmation of urease production. After inoculation, the system remained under static conditions (no flow) for two hours, to allow for bacterial attachment to the catheters. Flow of artificial urine medium was then initiated and maintained at a rate of 0.75 ml/min.
as §5, with “Days 1, 3 and 5: For” for “For”, “sterile PBS.” for “sterile phosphate-buffered saline (PBS).”, “Results are” for “Results were”, “and were” for “and are”, “as described in Phase One.” for “as follows: [formula]”
Days 1 and 3: After sampling, the catheters were disinfected and rinsed with sterile medium as described above.
Days 2 and 4: the catheters were disinfected and rinsed with sterile medium as described above. No samples were taken.
Day 5: Samples were taken for imaging and both ends of the catheter were sampled for viable cell count data.

[6] = tested on: bacteria on Foley catheter removed from a patient; test: Ex-vivo treatment of a patient catheter, viable plate counts; assay type: cell-based; settings: 40 mM
Protocol: Test Articles Used Were: • Sterile phosphate-buffered saline (PBS) • N,N-dichloro 2,2-dimethyl taurine, 40 mM, pH 4, 0.9% by weight NaCl
A Foley catheter was removed from a patient by hospital personnel and placed in a sterile bag. In the Bozeman Deaconess Hospital (BDH) lab, the outside of the catheter was wiped down with 70% ethanol. Then the catheter was aseptically cut into 3 catheter portions (bag-end, middle and patient-end). Each portion was cut into 3.0 cm long sections using a ruler and razor blades.
Three of the sections (one bag-end, one middle and one patient-end) designated as control were placed into sterile PBS. Three of the sections (one bag-end, one middle and one patient-end) were placed in 40 mM N,N-dichloro 2,2-dimethyl taurine. All catheter sections were treated for 30 minutes individually in sterile glass tubes, each with sufficient solution to be immersed completely. After treatment, each 3 cm section was removed from the treatment tubes and the PBS control tubes and placed into a second glass tube containing sterile PBS for a 2 minute rinse in order to remove the treatment solution. The section was then removed from the tube and aseptically cut into 1.0 cm and 2.0 cm pieces. The 2.0 cm piece was placed in a tube containing 10 ml of sterile PBS, vortexed, sonicated and diluted for viable plate counts. The number of viable (culturable) bacteria was enumerated by serial dilution in PBS and plate counts using the spread-plate technique. Samples were plated on blood agar plates. Results will be expressed as colony-forming units/cm^2, CFU/cm^2 (calculated as 2.0 cm length×0.25 cm (radius)×3.14 (pi)=1.57 cm^2). The 1.0 cm piece was placed in 4% formaldehyde solution.

[7] = daily treatment, DCDMT 40 mM pH 4 0.9% NaCl, vinegar 1:3 in water, neomycin prescription 1 ml in 1000 ml saline
[8] = pH 4, 0.9% NaCl, 30 min immersion

CC(C)(CS(=O)(=O)O)N(Cl)Cl [N,N-dichloro 2,2-dimethyl taurine]
CFU/mL ([1]; exposure 5 min): 0 CFU/mL | CFU/mL ([1]; exposure 10 min): 0 CFU/mL | CFU/mL ([1]; exposure 20 min): 0 CFU/mL | CFU/mL ([1]; exposure 30 min): 0 CFU/mL | CFU/mL ([1]; exposure 45 min): 0 CFU/mL | CFU/mL ([1]; exposure 60 min): 0 CFU/mL | CFU/mL ([1]; exposure 120 min): 0 CFU/mL | CFU/mL ([1]; exposure <1 min): 0 CFU/mL | CFU/mL ([2]; exposure 5 min): 1210 CFU/mL | CFU/mL ([2]; exposure 10 min): 150 CFU/mL | CFU/mL ([2]; exposure 20 min): 150 CFU/mL | CFU/mL ([2]; exposure 30 min): 100 CFU/mL | CFU/mL ([2]; exposure 45 min): 20 CFU/mL | CFU/mL ([2]; exposure 60 min): 10 CFU/mL | CFU/mL ([2]; exposure 120 min): 260 CFU/mL | CFU/mL ([2]; exposure <1 min): >>3000 CFU/mL | Visual examination of biofilm on the catheter surface ([3]; 33 mM in 0.9% saline at pH 3.5): subsequent removal | optical density readings following re-culture of bacteria from treated catheters (average) ([3]; 33 mM, 0.9% saline, pH 3.5, 4 h growth at 37 C in fresh medium, average, individual data not listed): 0.057 OD600 units | bacterial counts and presence of biofilm (visual interpretation from images) ([4]; 4 mM and 40 mM): significantly reduced | Average Log CFU/cm^2 on catheter section after treatment, average 3 pieces ([4]; 4 mM): 4.4 Log CFU/cm^2 | Average Log CFU/cm^2 on catheter section after treatment, end ([4]; 4 mM): 5.1 Log CFU/cm^2 | Average Log CFU/cm^2 on catheter section after treatment, front ([4]; 4 mM): 4.1 Log CFU/cm^2 | Average Log CFU/cm^2 on catheter section after treatment, middle ([4]; 4 mM): 3.9 Log CFU/cm^2 | Log reduction ([4]; 4 mM): 4.7 Log | Average Log CFU/cm^2 on catheter section after treatment, average 3 pieces ([4]; 40 mM): 3.8 Log CFU/cm^2 | Average Log CFU/cm^2 on catheter section after treatment, end ([4]; 40 mM): 3.8 Log CFU/cm^2 | Average Log CFU/cm^2 on catheter section after treatment, front ([4]; 40 mM): 3.7 Log CFU/cm^2 | Average Log CFU/cm^2 on catheter section after treatment, middle ([4]; 40 mM): 3.8 Log CFU/cm^2 | Log reduction ([4]; 40 mM): 5.3 Log | biofilm formation during the 5 day duration of the experiment ([5]; 40 mM, pH 4, 0.9% NaCl): appeared to inhibit biofilm formation | Biofilm prevention, viable cell count, Day 1 [5, 7]: 2.6 log CFU/cm^2 | Biofilm prevention, viable cell count, Day 3 [5, 7]: 3.2 log CFU/cm^2 | Biofilm prevention, viable cell count, Day 5 "End" (bladder end) [5, 7]: 3.1 log CFU/cm^2 | Biofilm prevention, viable cell count, Day 5 "Front" (bag end) [5, 7]: 3.9 log CFU/cm^2 | Average Log CFU/cm^2 on catheter section after treatment, average 3 pieces [6, 8]: 1.2 Log CFU/cm^2 | Average Log CFU/cm^2 on catheter section after treatment, bag end [6, 8]: 2.1 Log CFU/cm^2 | Average Log CFU/cm^2 on catheter section after treatment, middle [6, 8]: 0.5 Log CFU/cm^2 | Average Log CFU/cm^2 on catheter section after treatment, patient end [6, 8]: 0.8 Log CFU/cm^2 | Log reduction ([6]; compared to catheter pieces treated with sterile PBS): 1.8 Log
